Results: PubChem BioAssay AID248 (DTP/NCI, 2004)
Where “and” joins values, the source holds several entries; their conditions need not be identical. Identical values can stand only once. Toxic doses and inconclusive results are not listed. No stated cut-off is given here; in the data, active means T/C of 150% or more; inactive means T/C below 125%.

System: L1210 leukemia ip in BDF1 mice, survival T/C
Test: NCI In Vivo Anticancer Drug Screen. Data for tumor model L1210 Leukemia (intraperitoneal) in B6D2F1 (BDF1) mice
Conditions: higher = longer survival
Procedure, shortened: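 Ratio derived from survival: compound-dosed mice over vehicle-dosed mice, all bearing a transplantable tumor.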

[1] = endpoint: mean survival time, dose: 100.0 mg/kg/injection, schedule: Q04DX003 (ip), vehicle: saline with Tween-80
[2] = endpoint: mean survival time, dose: 200.0 mg/kg/injection, schedule: Q04DX003 (ip), vehicle: saline with Tween-80
[3] = endpoint: mean survival time, dose: 400.0 mg/kg/injection, schedule: Q04DX003 (ip), vehicle: saline with Tween-80

Measured: T/C

CS(=O)(=O)OCCCCOS(C)(=O)=O
inactive: endpoint: mean survival time, dose: 1.5 mg/kg/injection, schedule: Q04DX002 (ip), vehicle: saline with Tween-80 95 % of control and 106 % of control | endpoint: mean survival time, dose: 1.7 mg/kg/injection, schedule: Q01DX009 (ip), vehicle: saline with Tween-80 96 % of control and 108 % of control | endpoint: mean survival time, dose: 2.9 mg/kg/injection, schedule: Q04DX002 (ip), vehicle: saline with Tween-80 100 % of control and 107 % of control | endpoint: mean survival time, dose: 3.3 mg/kg/injection, schedule: Q01DX009 (ip), vehicle: saline with Tween-80 96 % of control and 105 % of control | endpoint: mean survival time, dose: 3.75 mg/kg/injection, schedule: Q01DX001 (ip), vehicle: carboxymethylcellulose (CMC) 103 % of control | endpoint: mean survival time, dose: 5.8 mg/kg/injection, schedule: Q04DX002 (ip), vehicle: saline with Tween-80 98 % of control and 102 % of control | endpoint: mean survival time, dose: 6.25 mg/kg/injection, schedule: Q01DX010 (ip), vehicle: saline 108 % of control and 118 % of control | endpoint: mean survival time, dose: 6.5 mg/kg/injection, schedule: Q01DX009 (ip), vehicle: saline with Tween-80 99 % of control and 105 % of control | endpoint: mean survival time, dose: 7.5 mg/kg/injection, schedule: Q01DX001 (ip), vehicle: carboxymethylcellulose (CMC) 112 % of control | endpoint: mean survival time, dose: 9.5 mg/kg/injection, schedule: Q02DX010 (ip), vehicle: carboxymethylcellulose (CMC) 111 % of control | endpoint: mean survival time, dose: 10.0 mg/kg/injection, schedule: Q01DX Z (ip), vehicle: carboxymethylcellulose (CMC) 104 % of control | endpoint: mean survival time, dose: 10.0 mg/kg/injection, schedule: Q02DX010 (ip), vehicle: carboxymethylcellulose (CMC) 97 % of control | endpoint: mean survival time, dose: 10.0 mg/kg/injection, schedule: Q02DX010 (ip), vehicle: other 112 % of control | endpoint: mean survival time, dose: 11.5 mg/kg/injection, schedule: Q04DX002 (ip), vehicle: saline with Tween-80 98 % of control and 109 % of control | endpoint: mean survival time, dose: 12.5 mg/kg/injection, schedule: Q01DX009 (ip), vehicle: saline 97 % of control and 104 % of control and 88 % of control | endpoint: mean survival time, dose: 12.5 mg/kg/injection, schedule: Q01DX010 (ip), vehicle: saline 116 % of control and 118 % of control | endpoint: mean survival time, dose: 12.5 mg/kg/injection, schedule: Q01DX Z (ip), vehicle: carboxymethylcellulose (CMC) 93 % of control and 102 % of control | endpoint: mean survival time, dose: 13.0 mg/kg/injection, schedule: Q01DX009 (ip), vehicle: saline with Tween-80 99 % of control and 101 % of control | endpoint: mean survival time, dose: 14.0 mg/kg/injection, schedule: Q02DX010 (ip), vehicle: carboxymethylcellulose (CMC) 96 % of control | endpoint: mean survival time, dose: 15.0 mg/kg/injection, schedule: Q01DX001 (ip), vehicle: carboxymethylcellulose (CMC) 101 % of control | endpoint: mean survival time, dose: 15.0 mg/kg/injection, schedule: Q02DX010 (ip), vehicle: carboxymethylcellulose (CMC) 98 % of control | endpoint: mean survival time, dose: 15.0 mg/kg/injection, schedule: Q02DX010 (ip), vehicle: other 104 % of control | endpoint: mean survival time, dose: 20.0 mg/kg/injection, schedule: Q01DX Z (ip), vehicle: carboxymethylcellulose (CMC) 103 % of control | endpoint: mean survival time, dose: 22.0 mg/kg/injection, schedule: Q02DX010 (ip), vehicle: carboxymethylcellulose (CMC) 103 % of control and 113 % of control | endpoint: mean survival time, dose: 22.0 mg/kg/injection, schedule: Q02DX010 (ip), vehicle: other 106 % of control | endpoint: mean survival time, dose: 23.0 mg/kg/injection, schedule: Q04DX002 (ip), vehicle: saline with Tween-80 98 % of control and 100 % of control | endpoint: mean survival time, dose: 25.0 mg/kg/injection, schedule: Q01DX009 (ip), vehicle: saline with Tween-80 101 % of control and 115 % of control | endpoint: mean survival time, dose: 25.0 mg/kg/injection, schedule: Q01DX009 (ip), vehicle: saline 96 % of control (2×) and 111 % of control | endpoint: mean survival time, dose: 25.0 mg/kg/injection, schedule: Q01DX Z (ip), vehicle: carboxymethylcellulose (CMC) 102 % of control and 105 % of control | endpoint: mean survival time, dose: 27.0 mg/kg/injection, schedule: Q01DX001 (ip), vehicle: carboxymethylcellulose (CMC) 96 % of control | endpoint: mean survival time, dose: 30.0 mg/kg/injection, schedule: Q01DX001 (ip), vehicle: carboxymethylcellulose (CMC) 106 % of control | endpoint: mean survival time, dose: 33.0 mg/kg/injection, schedule: Q02DX010 (ip), vehicle: other 112 % of control | endpoint: mean survival time, dose: 40.0 mg/kg/injection, schedule: Q01DX Z (ip), vehicle: carboxymethylcellulose (CMC) 110 % of control | endpoint: mean survival time, dose: 40.0 mg/kg/injection, schedule: Q01DX Z (oral), vehicle: saline 94 % of control | endpoint: mean survival time, dose: 41.0 mg/kg/injection, schedule: Q01DX001 (ip), vehicle: carboxymethylcellulose (CMC) 103 % of control | endpoint: mean survival time, dose: 46.0 mg/kg/injection, schedule: Q04DX002 (ip), vehicle: saline with Tween-80 104 % of control and 107 % of control | endpoint: mean survival time, dose: 49.0 mg/kg/injection, schedule: Q01DX009 (ip), vehicle: saline with Tween-80 103 % of control and 121 % of control | endpoint: mean survival time, dose: 50.0 mg/kg/injection, schedule: Q01DX009 (ip), vehicle: saline 98 % of control and 109 % of control and 120 % of control | endpoint: mean survival time, dose: 50.0 mg/kg/injection, schedule: Q01DX010 (ip), vehicle: saline 111 % of control and 88 % of control | endpoint: mean survival time, dose: 50.0 mg/kg/injection, schedule: Q01DX Z (ip), vehicle: carboxymethylcellulose (CMC) 103 % of control | endpoint: mean survival time, dose: 50.0 mg/kg/injection, schedule: Q02DX010 (ip), vehicle: carboxymethylcellulose (CMC) 101 % of control and 107 % of control | endpoint: mean survival time, dose: 50.0 mg/kg/injection, schedule: Q02DX010 (ip), vehicle: other 115 % of control | endpoint: mean survival time, dose: 60.0 mg/kg/injection, schedule: Q01DX001 (ip), vehicle: carboxymethylcellulose (CMC) 110 % of control | endpoint: mean survival time, dose: 61.0 mg/kg/injection, schedule: Q01DX001 (ip), vehicle: carboxymethylcellulose (CMC) 98 % of control | endpoint: mean survival time, dose: 75.0 mg/kg/injection, schedule: Q02DX010 (ip), vehicle: carboxymethylcellulose (CMC) 89 % of control | endpoint: mean survival time, dose: 80.0 mg/kg/injection, schedule: Q01DX Z (oral), vehicle: saline 105 % of control | endpoint: mean survival time, dose: 100.0 mg/kg/injection, schedule: Q01DX009 (ip), vehicle: saline 88 % of control | endpoint: mean survival time, dose: 100.0 mg/kg/injection, schedule: Q01DX Z (ip), vehicle: carboxymethylcellulose (CMC) 93 % of control | [1] 101 % of control | endpoint: mean survival time, dose: 120.0 mg/kg/injection, schedule: Q01DX001 (ip), vehicle: carboxymethylcellulose (CMC) 100 % of control | endpoint: mean survival time, dose: 160.0 mg/kg/injection, schedule: Q01DX Z (oral), vehicle: saline 108 % of control | [2] 104 % of control | [3] 104 % of control | endpoint: median survival time, dose: 10.0 mg/kg/injection, schedule: Q01DX009 (ip), vehicle: saline 105 % of control | endpoint: median survival time, dose: 12.5 mg/kg/injection, schedule: Q01DX009 (ip), vehicle: saline 95 % of control and 112 % of control | endpoint: median survival time, dose: 20.0 mg/kg/injection, schedule: Q01DX009 (ip), vehicle: saline 100 % of control | endpoint: median survival time, dose: 25.0 mg/kg/injection, schedule: Q01DX009 (ip), vehicle: saline 110 % of control and 112 % of control | endpoint: median survival time, dose: 40.0 mg/kg/injection, schedule: Q01DX009 (ip), vehicle: saline 100 % of control | endpoint: median survival time, dose: 50.0 mg/kg/injection, schedule: Q01DX009 (ip), vehicle: saline 100 % of control and 112 % of control | endpoint: median survival time, dose: 80.0 mg/kg/injection, schedule: Q01DX009 (ip), vehicle: saline 110 % of control | endpoint: median survival time, dose: 100.0 mg/kg/injection, schedule: Q01DX009 (ip), vehicle: saline 100 % of control | endpoint: median survival time, dose: 160.0 mg/kg/injection, schedule: Q01DX009 (ip), vehicle: saline 100 % of control

CCCC(O)CN (stereo not given)
inactive: endpoint: mean survival time, dose: 50.0 mg/kg/injection, schedule: Q01DX001 (ip), vehicle: carboxymethylcellulose (CMC) 98 % of control | endpoint: mean survival time, dose: 100.0 mg/kg/injection, schedule: Q01DX001 (ip), vehicle: carboxymethylcellulose (CMC) 102 % of control | endpoint: mean survival time, dose: 200.0 mg/kg/injection, schedule: Q01DX001 (ip), vehicle: carboxymethylcellulose (CMC) 104 % of control | endpoint: mean survival time, dose: 400.0 mg/kg/injection, schedule: Q01DX001 (ip), vehicle: carboxymethylcellulose (CMC) 116 % of control

CCOC(=O)Nc1ccccc1OCC
inactive: endpoint: mean survival time, dose: 100.0 mg/kg/injection, schedule: Q01DX009 (ip), vehicle: Klucel (hydroxypropylcellulose) (HPC) 96 % of control | endpoint: mean survival time, dose: 200.0 mg/kg/injection, schedule: Q01DX009 (ip), vehicle: Klucel (hydroxypropylcellulose) (HPC) 95 % of control | endpoint: mean survival time, dose: 400.0 mg/kg/injection, schedule: Q01DX009 (ip), vehicle: Klucel (hydroxypropylcellulose) (HPC) 96 % of control

O=C(/C=C/c1ccccc1)c1ccccc1O
inactive: endpoint: mean survival time, dose: 100.0 mg/kg/injection, schedule: Q01DX009 (ip), vehicle: saline with Tween-80 89 % of control | [1] 100 % of control | endpoint: mean survival time, dose: 200.0 mg/kg/injection, schedule: Q01DX009 (ip), vehicle: saline with Tween-80 86 % of control | [2] 98 % of control | endpoint: mean survival time, dose: 400.0 mg/kg/injection, schedule: Q01DX009 (ip), vehicle: saline with Tween-80 94 % of control | [3] 98 % of control

CN(C)c1ccc(C(C#N)=C(C#N)C#N)cc1
inactive: endpoint: mean survival time, dose: 100.0 mg/kg/injection, schedule: Q01DX001 (ip), vehicle: acetone 96 % of control | endpoint: mean survival time, dose: 100.0 mg/kg/injection, schedule: Q01DX009 (ip), vehicle: acetone 97 % of control | endpoint: mean survival time, dose: 200.0 mg/kg/injection, schedule: Q01DX001 (ip), vehicle: acetone 99 % of control | endpoint: mean survival time, dose: 200.0 mg/kg/injection, schedule: Q01DX009 (ip), vehicle: acetone 97 % of control | endpoint: mean survival time, dose: 400.0 mg/kg/injection, schedule: Q01DX001 (ip), vehicle: acetone 94 % of control
